Data reported in patent US12077503B2, “Substituted cyclic amides and their use as herbicides” (FMC CORPORATION, priority 2015, dated 2024).

What was measured:
Assay type in all cases: in vivo
[1] = system: giant foxtail (Setaria faberii); experiment: Test A preemergence
Method in brief: (§1)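 Each rating is a visual injury score from 0 to 100 given about 10 d after treatment, judged against untreated controls kept alongside in the greenhouse. In loam soil–sand blend, seeds got a preemergence directed soil spray, while postemergence plants were 2 to 10 cm tall at spraying.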

[2] = system: ryegrass, Italian (Italian ryegrass, Lolium multiflorum); experiment: Test A preemergence
Method in brief: as §1

[3] = system: ragweed (common ragweed, Ambrosia elatior); experiment: Test A preemergence
Method in brief: as §1

[4] = system: barnyardgrass (Echinochloa crus-galli); experiment: Test A preemergence
Method in brief: as §1

[5] = system: pigweed (Amaranthus retroflexus); experiment: Test A preemergence
Kochia (Kochia scoparia) [6] = experiment: Test A preemergence
Method in brief: as §1

[7] = system: giant foxtail (Setaria faberii); experiment: Test A postemergence; details: for Plant response rating, Foxtail, Giant: postemergence, 0 to 100 scale (0 no effect, 100 complete control)
Method in brief: as §1

[8] = system: ryegrass, Italian (Italian ryegrass, Lolium multiflorum); experiment: Test A postemergence
Method in brief: as §1

corn (Zea mays) = experiment: Test A postemergence
Method in brief: as §1

[9] = system: ragweed (common ragweed, Ambrosia elatior); experiment: Test A postemergence; details: for Plant response rating, Ragweed: postemergence, 0 to 100 scale (0 no effect, 100 complete control)
Method in brief: as §1

[10] = system: wheat (Triticum aestivum); experiment: Test A postemergence
Method in brief: as §1

[11] = system: blackgrass (Alopecurus myosuroides); experiment: Test A postemergence
Method in brief: as §1

[12] = system: barnyardgrass (Echinochloa crus-galli); experiment: Test A postemergence; details: for Plant response rating, Barnyardgrass: postemergence, 0 to 100 scale (0 no effect, 100 complete control)
Method in brief: as §1

[13] = system: pigweed (Amaranthus retroflexus); experiment: Test A postemergence; details: for Plant response rating, Pigweed: postemergence, 0 to 100 scale (0 no effect, 100 complete control)
Method in brief: as §1

[14] = system: Galium (catchweed bedstraw, Galium aparine); experiment: Test A postemergence; details: for Plant response rating, Galium: postemergence, 0 to 100 scale (0 no effect, 100 complete control)
Method in brief: as §1

Kochia (Kochia scoparia) [15] = experiment: Test A postemergence
Method in brief: as §1

[16] = system: ducksalad (Heteranthera limosa); experiment: Test B flooded paddy test; details: Flood
Method in brief: (§2)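 Response scored visually against untreated controls, 0 = no effect and 100 = complete control, 13–15 d after treatment in the greenhouse. Compounds added to paddy water held 3 cm above soil surface. Treatment given at 2-leaf stage.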

[17] = system: barnyardgrass (Echinochloa crus-galli); experiment: Test B flooded paddy test; details: Flood
Method in brief: as §2

rice (Oryra sativa) = experiment: Test B flooded paddy test; details: Flood
Method in brief: as §2

[18] = system: sedge, umbrella (small-flower umbrella sedge, Cyperus difformis); experiment: Test B flooded paddy test; details: Flood, 0 to 100 scale where 0 is no effect and 100 is complete control
Method in brief: as §2

[19] = 125 g ai/ha, preemergence, visual rating after approx. 10 d, 0 to 100 scale where 0 is no effect and 100 is complete control
[20] = 500 g ai/ha, preemergence, 0 to 100 scale, 0 = no effect, 100 = complete control
[21] = 125 g ai/ha, visual injury after approximately 10 d
[22] = 500 g ai/ha, visual injury, approx. 10 d
[23] = 125 g ai/ha, postemergence, visual injury after approximately 10 d, 0 to 100 scale (0 no effect, 100 complete control)
[24] = 500 g ai/ha, postemergence, visual injury, 0 to 100 scale (0 no effect, 100 complete control), approx. 10 d
[25] = 500 g ai/ha, 0 to 100 scale where 0 is no effect and 100 is complete control, 13 to 15 d
[26] = 125 g ai/ha, Preemergence, visual injury rating after approximately 10 d
[27] = 125 g ai/ha, Postemergence, visual injury after approximately 10 d, 0 to 100 scale where 0 is no effect and 100 is complete control

O=C1NCC(c2cccc3ccccc23)C1C(=O)Nc1ccccc1C(F)(F)F (racemic) [Compound 712]
0: Plant response rating, Foxtail, Giant [1, 19] | Plant response rating, Foxtail, Giant [1, 20] | Plant response rating, Ryegrass, Italian [2, 19] | Plant response rating, Ryegrass, Italian [2, 20] | Plant response rating, Ragweed [3, 19] | Plant response rating, Ragweed [3, 20] | Plant response rating, Barnyardgrass [4, 19] | Plant response rating, Barnyardgrass [4, 20] | Plant response rating, Pigweed [5, 19] | Plant response rating, Pigweed [5, 20] | Plant response rating, Kochia (Kochia (Kochia scoparia) [6]; [19]) | Plant response rating, Kochia (Kochia (Kochia scoparia) [6]; [20]) | Plant response rating, Foxtail, Giant [7, 21] | Plant response rating, Foxtail, Giant [7, 22] | Plant response rating, Ryegrass, Italian [8, 23] | Plant response rating, Ryegrass, Italian [8, 24] | Plant response rating, Corn (corn (Zea mays); [23]) | Plant response rating, Corn (corn (Zea mays); [24]) | Plant response rating, Ragweed [9, 21] | Plant response rating, Ragweed [9, 22] | Plant response rating, Wheat [10, 23] | Plant response rating, Wheat [10, 24] | Plant response rating, Blackgrass [11, 23] | Plant response rating, Blackgrass [11, 24] | Plant response rating, Barnyardgrass [12, 21] | Plant response rating, Barnyardgrass [12, 22] | Plant response rating, Pigweed [13, 21] | Plant response rating, Pigweed [13, 22] | Plant response rating, Galium [14, 21] | Plant response rating, Galium [14, 22] | Plant response rating, Kochia (Kochia (Kochia scoparia) [15]; [23]) | Plant response rating, Kochia (Kochia (Kochia scoparia) [15]; [24]) | Plant response rating, Ducksalad [16, 25] | Plant response rating, Barnyardgrass [17, 25] | Plant response rating, Rice (rice (Oryra sativa); [25]) | Plant response rating, Sedge, Umbrella ([18]; 500 g ai/ha, 13 to 15 d)

Cc1ccc([C@H]2CN(C)C(=O)[C@@H]2C(=O)Nc2ccccc2[S+](C)[O-])cc1F (single isomer, unassigned) [Compound 987]
35%: pest or weed control at 250 g/ha (rice (Oryra sativa); Oryza sativa, 250 g ai/ha, scale of 0 to 100 where 0 is no effect and 100 is complete control, read-out: Rice plant response rating)
40%: pest or weed control at 500 g/ha ([2]; Lolium multiflorum, pre-emergence, 240 h, 500 g ai/ha, preemergence, visual injury rating about 10 d after treatment, 0 to 100 scale (0 no effect, 100 complete control), read-out: Ryegrass, Italian plant response rating) | pest or weed control at 125 g/ha ([14]; Galium, post-emergence, 240 h, 125 g ai/ha, Postemergence, visual injury after approximately 10 d, 0 to 100 scale where 0 is no effect and 100 is complete control, read-out: Plant response rating, Galium)
80%: pest or weed control at 125 g/ha ([12]; Echinochloa crus-galli, post-emergence, 240 h, 125 g ai/ha, Postemergence, visual injury after approximately 10 d, 0 to 100 scale where 0 is no effect and 100 is complete control, read-out: Plant response rating, Barnyardgrass)
0: Ragweed plant response rating (0 to 100 scale, 0 is no effect, 100 is complete control) [3, 26] | Ragweed plant response rating ([3]; 500 g ai/ha, preemergence, visual injury rating about 10 d after treatment, 0 to 100 scale (0 no effect, 100 complete control)) | Pigweed plant response rating (0 to 100 scale, 0 is no effect, 100 is complete control) [5, 26] | Kochia plant response rating (0 to 100 scale, 0 is no effect, 100 is complete control) (Kochia (Kochia scoparia) [6]; [26]) | Plant response rating, Ryegrass, Italian [8, 27] | Plant response rating, Corn (corn (Zea mays); [27]) | Plant response rating, Wheat [10, 27] | Plant response rating, Blackgrass [11, 27] | Plant response rating, Kochia (Kochia (Kochia scoparia) [15]; [27])
60%: pest or weed control at 500 g/ha (Kochia (Kochia scoparia) [6]; Bassia scoparia, pre-emergence, 240 h, 500 g ai/ha, preemergence, visual injury rating about 10 d after treatment, 0 to 100 scale (0 no effect, 100 complete control), read-out: Kochia plant response rating) | pest or weed control at 125 g/ha ([7]; Setaria faberi, post-emergence, 240 h, 125 g ai/ha, Postemergence, visual injury after approximately 10 d, 0 to 100 scale where 0 is no effect and 100 is complete control, read-out: Plant response rating, Foxtail, Giant)
75: Ducksalad plant response rating ([16]; 250 g ai/ha, scale of 0 to 100 where 0 is no effect and 100 is complete control)
60: Barnyardgrass plant response rating (0 to 100 scale, 0 is no effect, 100 is complete control) [4, 26]
90%: pest or weed control at 125 g/ha ([1]; Setaria faberi, pre-emergence, 240 h, 125 g ai/ha, Preemergence, visual injury rating after approximately 10 d, read-out: Foxtail, Giant plant response rating (0 to 100 scale, 0 is no effect, 100 is complete control)) | pest or weed control at 500 g/ha ([1]; Setaria faberi, pre-emergence, 240 h, 500 g ai/ha, preemergence, visual injury rating about 10 d after treatment, 0 to 100 scale (0 no effect, 100 complete control), read-out: Foxtail, Giant plant response rating) | pest or weed control at 500 g/ha ([4]; Echinochloa crus-galli, pre-emergence, 240 h, 500 g ai/ha, preemergence, visual injury rating about 10 d after treatment, 0 to 100 scale (0 no effect, 100 complete control), read-out: Barnyardgrass plant response rating) | pest or weed control at 250 g/ha ([17]; Echinochloa crus-galli, 250 g ai/ha, scale of 0 to 100 where 0 is no effect and 100 is complete control, read-out: Barnyardgrass plant response rating)
20%: pest or weed control at 500 g/ha ([5]; Amaranthus retroflexus, pre-emergence, 240 h, 500 g ai/ha, preemergence, visual injury rating about 10 d after treatment, 0 to 100 scale (0 no effect, 100 complete control), read-out: Pigweed plant response rating)
0%: pest or weed control at 125 g/ha ([2]; Lolium multiflorum, pre-emergence, 240 h, 125 g ai/ha, Preemergence, visual injury rating after approximately 10 d, read-out: Ryegrass, Italian plant response rating (0 to 100 scale, 0 is no effect, 100 is complete control)) | pest or weed control at 125 g/ha ([9]; Ambrosia artemisiifolia, post-emergence, 240 h, 125 g ai/ha, Postemergence, visual injury after approximately 10 d, 0 to 100 scale where 0 is no effect and 100 is complete control, read-out: Plant response rating, Ragweed) | pest or weed control at 125 g/ha ([13]; Amaranthus retroflexus, post-emergence, 240 h, 125 g ai/ha, Postemergence, visual injury after approximately 10 d, 0 to 100 scale where 0 is no effect and 100 is complete control, read-out: Plant response rating, Pigweed) | pest or weed control at 250 g/ha ([18]; Cyperus difformis, 250 g ai/ha, read-out: Sedge, Umbrella plant response rating)
